Results from US20260355171A1, “INHIBITORS AND USES THEREFOR” (priority 2022, published 2026).

How the values were obtained:
primary neurons = test: Effect of compounds on neuronal cell death caused by NSP5 (Example 6); assay type: cell-based, mouse; settings: 10 μM, 48 hours
[1] = Stability in brain and lung homogenates; assay type: in vitro ADME, mouse; settings: sample processing (15 min), EDTA/potassium fluoride
Protocol: Tissue: Pre-weighed tissue samples (brain and lung) were homogenised using a gentleMACS™ Octo Dissociator (Miltenyi Biotec, Macquarie Park, Australia) in buffer containing an EDTA/potassium fluoride solution (0.1 M/4 mg/mL) as a stabilisation cocktail to minimise the potential for ex vivo degradation (3 mL cocktail/g tissue). The tissue homogenate was briefly centrifuged (RCF=79×g) for 10 seconds to separate the foam layer before transferring an aliquot of the tissue homogenate (200 μL) to a fresh Eppendorf tube for sample extraction. Calibration standards were prepared by spiking blank brain and lung homogenate (200 μL) with the solution standards (10 μL) and the internal standard (10 μL). Study samples (for all tissue types) were similarly prepared, except that acetonitrile (10 μL) was added instead of solution standards to maintain the same volume. Protein precipitation was carried out by the addition of a 3-fold volume of acetonitrile, followed by vortex mixing and centrifugation (RCF=9391×g) for 3 min to recover the supernatant for analysis.

NC(=O)C1CCN(c2ncccc2CNCc2cccc3[nH]ccc23)CC1 [Compound 22]
Reduction of neuronal cell death caused by NSP5 (primary neurons): greatest activity | Stability in brain and lung homogenates [1]: stable
